# From US7807176B2, “Polypeptide promoting vascular endothelial cell growth” (Genomidea, Inc., priority 2004, dated 2010)
# “Also recorded” adds a separate entry of the source.
# Key:
# [1] = system: c-fos promoter; test: c-fos promoter assay (c-fos-Luci luciferase); assay type: cell-based, bovine; conditions: FIG. 8
# Description: To further confirm the proliferation ability, an assay using a promoter of proto-oncogene c-fos, which is activated in the earliest stage of cell proliferation, was carried out. The gene c-fos-Luci having luciferase ligated under this promoter, and a candidate gene, were introduced in a weight ratio of 1:1 by lipofection into bovine vascular endothelial cells, and after 24 to 48 hours, the luciferase activity was measured.
# [2] = system: HAEC; test: MTS assay of endothelial cell proliferation with added peptide; assay type: cell-based, human; conditions: for endothelial proliferation Increase [times]: MTS, Table 3
# Description: F2 peptide was synthesized and then contacted in a varying amount with HAEC, and the ability thereof to proliferate the cells was examined by MTS assay. The MTS assay is a modification of the MTT assay, and is a method of measuring living cells based on a reaction of reducing tetrazolium salt (MTS) by living cells in culture, into a colored product formazan. Specifically, this assay is carried out as follows: • HAEC was inoculated onto a 96-well plate at a density of 750 cells/well. • 2 μl/well of each sample was added to 100 μl/well endothelial cell medium (1% FBS, without EGF). 2 μl/well was added every day (until Day 6) (the medium was not exchanged). • 20 μl measurement solution (Cell Titer 96 AQueous One Solution Cell Proliferation Assay (Promega)) was added to each well and mixed with 100 μl of the endothelial cell medium, and the old medium was removed by suction. A mixed suspension of the measurement solution and the cells was put in a volume of 120 μl/well and then incubated for 1 to 5 hours in a CO2 incubator. • The absorbance at 490 nm was measured with a plate reader.
# The sample group (8 wells each) is as follows: • NC: Only EBM medium (endothelial cell medium) containing 1% FBS. The other samples were cultured by adding various peptides to this medium containing serum. • VEGF-A: Recombinant VEGF-A (KURABO) was added at a final concentration of 10 ng/ml. • F2-1: F2 peptide was added at a final concentration of 1 ng/ml. • F2-10: F2 peptide was added at a final concentration of 10 ng/ml. • F2-100: F2 peptide was added at a final concentration of 100 ng/ml. • F2-1000: F2 peptide was added at a final concentration of 1000 ng/ml.
# [3] = system: HEAC endothelial cells; test: Endothelial cell migration, modified Boyden chamber; assay type: cell-based, human; conditions: for migration % Increase: 4 hours
# Description: A polyvinyl pyrrolidone (PVP)-free polycarbonate membrane having […] (Neuro Probe Inc., Gaithersburg, Md.) was coated overnight with 0.1% gelatin and then washed with phosphate buffered saline to remove an excess of the gelatin coating. Then, 28 μl growth factor-free EBM2 medium supplemented with 1% FBS was arranged in a lower chamber, and the membrane was arranged on the lower chamber. […] The Boyden chamber was incubated at 37° C. for 4 hours. After incubation, the membrane was removed and the cells on the upper side of the membrane were removed. The cells on the lower side of the membrane were stained with Diff-Quick (Sysmex, Hyogo Pref., JP). The cells in each of randomly selected 8 visual fields (×100) were counted.
# [4] = system: transforming growth factor (TGF-β) mRNA; test: Growth factor mRNA expression level: TGF-β; assay type: cell-based
# [5] = system: connective tissue growth factor (CTGF) mRNA; test: Growth factor mRNA expression level: CTGF; assay type: cell-based
sequence,measurement,setting,value
MLSLIFLHRLKSMRKRLDRKLRFWHRKNYP (listed as Homo sapiens) [F2 peptide],activity in c-fos promoter assay of gene fragments in pCDNA3.1,[1],same activity as that of VEGF
same,endothelial proliferation Increase [times],[2]; 100 ng/ml,1.23 times
same,endothelial proliferation Increase [times],[2]; 1 μg/ml,1.475 times
same,"cell proliferation ability (MTS assay, absorbance at 490 nm)","[2]; F2 peptide 1 to 1000 ng/ml added every day until Day 6, VEGF-A 10 ng/ml, FIG. 9","recognized in a dose-dependent manner, similar to VEGF protein; also recorded: stronger activity of enhancing proliferation of HEAC than VEGF"
same,migration % Increase,[3]; 10 ng/ml,88.5%
same,migration % Increase,[3]; 100 ng/ml,102.5%
same,migration % Increase,[3]; 1 μg/ml,129.8%
same,cell migration activity (in words),"[3]; F2 0.01 to 1 μg/ml, control peptide 1 μg/ml, VEGF 50 ng/ml, FIG. 10",significantly increased in a concentration-dependent manner; also recorded: higher than that of VEGF (50 ng/ml)
same,effect on mRNA level of TGF-β (in words),[4],did not have any effect
same,TGF-b mRNA Increased Amount [times],[4]; 24 hrs,2.6 times
same,TGF-b mRNA Increased Amount [times],[4]; 48 hrs,13.6 times
same,TGF-b mRNA Increased Amount [times],[4]; 72 hrs,1.6 times
same,effect on mRNA level of CTGF (in words),[5],did not have any effect
same,CTGF mRNA Increased Amount [times],[5]; 24 hrs,0.2 times
same,CTGF mRNA Increased Amount [times],[5]; 48 hrs,1.1 times
same,CTGF mRNA Increased Amount [times],[5]; 72 hrs,0.5 times
